Values of other authors, collected in patent US11851709B2, “HER2 as a predictor of response to dual HER2 blockade in the absence of cytotoxic therapy” (FUNDACIÓ PRIVADA INSTITUT D'INVESTIGACIÓ ONCOLÓGICA DE VALL …, priority 2016, dated 2023).

Tests used:
HER2+ breast cancer = conditions: at 4.5-years; added to adjuvant trastuzumab and chemotherapy; statistically non-significant
[1] = test system: node-positive breast cancer; conditions: interaction between HER2 positivity and addition of paclitaxel; P=0.01

## CS(=O)(=O)CCNCc1ccc(-c2ccc3ncnc(Nc4ccc(OCc5cccc(F)c5)c(Cl)c4)c3c2)o1 [lapatinib]
HER2+ breast cancer
  absolute benefit in DFS: ~2%

## CC(=O)O[C@H]1C(=O)[C@@]2(C)[C@H]([C@H](OC(=O)c3ccccc3)[C@]3(O)C[C@H](OC(=O)[C@H](O)[C@@H](NC(=O)c4ccccc4)c4ccccc4)C(C)=C1C3(C)C)[C@]1(OC(C)=O)CO[C@@H]1C[C@@H]2O [paclitaxel]
[1]
  hazard ratio for recurrence: 0.59
